Three compounds from US12139520B2 (priority 2020, dated 2024) can be followed below.

The structures appear in SMILES notation. Bridge positions count the residues as written; N and C are the ends. Square brackets hold non-standard residues; d marks the D form. Peptide text beside a SMILES is read from it. Hyp = O=C(O)[C@@H]1C[C@@H](O)CN1; Cit = NC(=O)NCCC[C@H](N)C(=O)O

Data set [1] in a line: Physical stability of peptide analogues (Thioflavin T fibrillation). Format: physicochemical. Particulars: maximum ThT signal normalized between hAMY maximum and buffer background; 40° C., shaking, four days; pH 7 per table title. Put shortly:
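1 h in 50 mM NaOAc pH 4 / 50 mM NaPi pH 7; + ThT 4 μM final; 40 °C, 700 rpm linear shake 5 min pre-read; ex 450, em 480 nm q10 min × 4 d; LOESS smoothing; max signal normalised to hAMY max vs buffer blank.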

The target in another data set is T1, hAMY3 receptor (Homo sapiens, UniProt O60896+P30988).
T1 sequence (P30988 25-474): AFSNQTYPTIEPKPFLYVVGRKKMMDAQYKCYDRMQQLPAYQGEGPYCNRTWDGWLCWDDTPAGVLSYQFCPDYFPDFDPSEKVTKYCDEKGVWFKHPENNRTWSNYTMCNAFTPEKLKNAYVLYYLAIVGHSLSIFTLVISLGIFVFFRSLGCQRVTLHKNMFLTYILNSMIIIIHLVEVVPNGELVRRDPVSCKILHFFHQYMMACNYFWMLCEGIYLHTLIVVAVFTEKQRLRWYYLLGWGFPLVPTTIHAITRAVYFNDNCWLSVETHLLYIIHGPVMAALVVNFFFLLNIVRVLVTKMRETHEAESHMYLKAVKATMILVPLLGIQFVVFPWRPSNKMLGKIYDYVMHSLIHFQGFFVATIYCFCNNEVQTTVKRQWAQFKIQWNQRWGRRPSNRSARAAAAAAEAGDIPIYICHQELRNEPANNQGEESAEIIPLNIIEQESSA
T1 sequence (O60896 24-148 partner): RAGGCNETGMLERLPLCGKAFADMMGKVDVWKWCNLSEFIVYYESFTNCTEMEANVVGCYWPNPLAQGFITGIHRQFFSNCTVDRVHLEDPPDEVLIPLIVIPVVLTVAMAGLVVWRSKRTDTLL
The data set is described as follows: cAMP assay for in vitro receptor activation, hAMY3-R. In kind it is cell-based. Particulars: cAMP assay, hAMY3 receptor; read-out: hAMY3R EC50. Put shortly: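 Read-out is TR-FRET cAMP signal, recorded one hour after reagent addition, following 30 min room-temperature stimulation of stable hAMY3 cells with graded compound doses in casein/IBMX (0.5 mM) buffer.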

The term EC50 denotes the concentration that produces a half-maximal response. For `CC[C@H](C)[C@H](NC(=O)[C@H](CCC(N)=O)NC(=O)[C@H](Cc1c[nH]cn1)NC(=O)[C@H](C)NC(=O)[C@H](CC(C)C)NC(=O)[C@H](CCCNC(N)=O)NC(=O)[C@H](CCC(N)=O)NC(=O)[C@@H](NC(=O)[C@@H](NC(=O)[C@@H]1CSSC[C@H](NC(=O)CN)C(=O)N[C@@H](CCCNC(=N)N)C(=O)N[C@@H](Cc2ccccc2)C(=O)NCC(=O)N[C@@H]([C@@H](C)O)C(=O)N1)[C@@H](C)O)C(C)C)C(=O)N[C@@H](Cc1ccc(O)cc1)C(=O)N[C@@H](CCC(N)=O)C(=O)N[C@@H](Cc1ccccc1)C(=O)N[C@H](C(=O)N[C@@H](CC(=O)O)C(=O)N[C@@H](CCCCN)C(=O)N[C@@H](CC(=O)O)C(=O)N[C@@H](CCCCN)C(=O)N[C@@H](CC(=O)O)C(=O)N[C@@H](CC(N)=O)C(=O)N[C@H](C(=O)N[C@@H](C)C(=O)N1CCC[C@H]1C(=O)N[C@@H](CCCNC(=N)N)C(=O)N[C@@H](CO)C(=O)N[C@@H](CC(N)=O)C(=O)N[C@H](C(=O)N[C@@H](CO)C(=O)N1CCC[C@H]1C(=O)N[C@@H](CCC(N)=O)C(=O)NCC(=O)N[C@@H](Cc1ccc(O)cc1)C(N)=O)C(C)C)C(C)C)[C@@H](C)O` [compound 286] (H-GCRFGTCTVQ[Cit]LAHQIYQFTDKDKDNVAPRSNVSPQGY-NH2; disulfide 2-7; N-terminus assumed), in data set [1], the “Max ThT signal (%)” value is listed as 2.900%. The EC50 on hAMY3 receptor turned out to be 0.025 nM.

For `CC[C@H](C)[C@H](NC(=O)[C@H](CC(N)=O)NC(=O)[C@@H](NC(=O)[C@H](CCCNC(=N)N)NC(=O)[C@@H]1CCCN1C(=O)[C@H](C)NC(=O)[C@@H](NC(=O)[C@H](CC(N)=O)NC(=O)[C@H](CC(=O)O)NC(=O)[C@H](CCCCN)NC(=O)[C@H](CC(=O)O)NC(=O)[C@H](CCCCN)NC(=O)[C@H](CC(=O)O)NC(=O)[C@@H](NC(=O)[C@H](Cc1ccccc1)NC(=O)[C@H](CCC(N)=O)NC(=O)[C@H](Cc1ccc(O)cc1)NC(=O)[C@@H](NC(=O)[C@H](CCC(N)=O)NC(=O)[C@H](Cc1c[nH]cn1)NC(=O)[C@H](C)NC(=O)[C@H](CC(C)C)NC(=O)[C@H](CCCNC(N)=O)NC(=O)[C@H](CCC(N)=O)NC(=O)[C@@H](NC(=O)[C@@H](NC(=O)[C@@H]1CSSC[C@H](NC(=O)CN)C(=O)N[C@@H](CCCNC(=N)N)C(=O)N[C@@H](Cc2ccccc2)C(=O)NCC(=O)N[C@@H]([C@@H](C)O)C(=O)N1)[C@@H](C)O)C(C)C)[C@@H](C)CC)[C@@H](C)O)C(C)C)[C@@H](C)O)C(=O)NCC(=O)N1CCC[C@H]1C(=O)N[C@@H](CCC(N)=O)C(=O)NCC(=O)N1C[C@H](O)C[C@H]1C(N)=O` [compound 260] (H-GCRFGTCTVQ[Cit]LAHQIYQFTDKDKDNVAPRTNIGPQG[Hyp]-NH2; disulfide 2-7; N-terminus assumed), the “Max ThT signal (%)” value in data set [1] stood at 34.100%. For the same compound, the EC50 at hAMY3 receptor was 0.011 nM.

In the case of `CC[C@H](C)[C@H](NC(=O)[C@H](CCC(N)=O)NC(=O)[C@H](Cc1c[nH]cn1)NC(=O)[C@H](C)NC(=O)[C@H](CC(C)C)NC(=O)[C@H](CCCNC(=N)N)NC(=O)[C@H](CCC(N)=O)NC(=O)[C@@H](NC(=O)[C@@H](NC(=O)[C@@H]1CSSC[C@H](NC(=O)CN)C(=O)N[C@@H](CCCNC(=N)N)C(=O)N[C@@H](Cc2ccccc2)C(=O)NCC(=O)N[C@@H]([C@@H](C)O)C(=O)N1)[C@@H](C)O)C(C)C)C(=O)N[C@@H](Cc1ccc(O)cc1)C(=O)N[C@@H](CCC(N)=O)C(=O)N[C@@H](Cc1ccccc1)C(=O)N[C@H](C(=O)N[C@@H](CC(=O)O)C(=O)N[C@@H](CCCCN)C(=O)N[C@@H](CC(=O)O)C(=O)N[C@@H](CCCCN)C(=O)N[C@@H](CC(=O)O)C(=O)N[C@@H](CC(N)=O)C(=O)N[C@H](C(=O)N[C@@H](C)C(=O)N1CCC[C@H]1C(=O)N[C@@H](CCCNC(=N)N)C(=O)N[C@@H](CO)C(=O)N[C@@H](CC(N)=O)C(=O)N[C@H](C(=O)NCC(=O)N1CCC[C@H]1C(=O)N[C@@H](CC(N)=O)C(=O)NCC(=O)N[C@@H](Cc1ccc(O)cc1)C(N)=O)C(C)C)C(C)C)[C@@H](C)O` [compound 373] (H-GCRFGTCTVQRLAHQIYQFTDKDKDNVAPRSNVGPNGY-NH2; disulfide 2-7; N-terminus assumed), the “Max ThT signal (%)” value in data set [1] was 18.000%. Besides, the EC50 on hAMY3 receptor is 0.02 nM.
